From publication PMC4810081, “Venetoclax (ABT-199) Might Act as a Perpetrator in Pharmacokinetic Drug–Drug Interactions” (Pharmaceutics, 2016)

Columns and labels:
AhR = test system: T1, AhR; assay: AhR reporter gene assay in AZ-AHR cells; assay type: cell-based, human; conditions: 24 h, up to 10 µM
T1 construct: endogenous in cells; host or cells: AZ-AHR (HepG2 with stably integrated AhR-responsive luciferase reporter; gift of Z. Dvorak)
Protocol: AZ-AHR cells. The human hepatoma cell line HepG2 stably transfected with a construct containing several AhR binding sites upstream of luciferase reporter gene was used to investigate whether venetoclax can activate AhR. Cells were kindly provided by Z. Dvorak (Palacky University, Olomouc, Czech Republic).
To test whether the induction of CYP1A1 or UGTs can be attributed to AhR activation by venetoclax, an AhR reporter gene assay was applied. 60,000 AZ-AhR cells were seeded into each well of 96-well plates with clear bottom and clear lid for luminometry. After incubation for 24 h, cells were treated in triplicate with venetoclax (0.1–10 µM) or vehicle control (0.2% DMSO) for a further 24 h. The assay was performed with the Steady-Glo™ Luciferase Assay System according to the manufacturer’s instructions. Drug-induced increases of AhR receptor activity were normalized to activity of non-drug treated controls, which was set to 1 (= 100%). The experiment was performed in triplicate.

SLCO1B1 = assay: Induction assay, SLCO1B1 mRNA by real-time RT-PCR in LS180 cells; assay type: in vitro ADME, human; conditions: four days, at 5 µM
Protocol: (§1) LS180 cells. The human colon adenocarcinoma cell line LS180 (available at ATCC, Manassas, VA, USA) is one of the standard models for investigating pregnane X receptor (PXR) and aryl hydrocarbon receptor (AhR) mediated induction and was thus used for induction experiments. Cells were cultured under standard cell culture conditions with DMEM supplemented with 10% FCS, 2 mM of glutamine, 100 U/mL of penicillin, 100 µg/mL of streptomycin sulfate, and 0.1 mM of nonessential amino acids.
(§2) For the induction experiments, LS180 cells were seeded in 75 cm^2 culturing flasks and incubated for three days. […]
(§3) RNA was isolated using the GenElute™ Mammalian Total RNA Miniprep Kit, and cDNA was synthesized with the RevertAid™ H Minus First Strand cDNA Synthesis Kit according to the manufacturer's instructions. mRNA expression was quantified by real-time RT-PCR with the LightCycler® 480 (Roche Applied Science, Mannheim, Germany) as described previously. […] Data were evaluated via calibrator-normalized relative quantification with efficiency correction using the LightCycler® 480 software version 1.5 (Roche Applied Science, Mannheim, Germany). […] The following target genes were quantified: CYP1A1, CYP1A2, CYP3A4, ABCB1, ABCC2, ABCG2, SLCO1B1 (coding for OATP1B1), UDP-glucuronosyltransferase 1A3 (UGT1A3), and UGT1A9.

[1] = Intestinal concentration by FDA formula; conditions: after a dose of 250 mg, according to FDA formula (dose/250 mL)
Protocol: Thus, the question of whether these effects will also play a role in the clinical situation arises. Therapeutic plasma concentrations of venetoclax reach about 5 µM [3, 34, 35], a similar range to concentrations inhibiting drug transporters and CYP in vitro. […] Thus, even the moderate inhibition of P-gp by venetoclax might be relevant and should be tested in vivo.

[2] = test system: cell lines used for P-gp, BCRP, and OATP inhibition assays; assay: Cytotoxicity assay (Cytotoxicity Detection Kit); assay type: cell-based; conditions: up to 100 µM, all cell lines used
Protocol: Prior to P-gp, BCRP, and OATP inhibition assays, venetoclax was tested in the respective cell lines for cytotoxic effects with the Cytotoxicity Detection Kit (Roche Applied Science, Mannheim, Germany). Venetoclax was not cytotoxic up to 100 µM in all cell lines used.

CYP2D6 = molecular target: T2, CYP2D6 (Homo sapiens, UniProt P10635); assay: CYP2D6 inhibition, CYP2D6/AMMC High Throughput Inhibitor Screening Kit; assay type: in vitro ADME; conditions: recombinant CYP, fluorogenic substrate, 0.009–20 µM tested
T2 construct: purchased Becton Dickinson Biosciences (Heidelberg, Germany)
T2 sequence (P10635 whole entry): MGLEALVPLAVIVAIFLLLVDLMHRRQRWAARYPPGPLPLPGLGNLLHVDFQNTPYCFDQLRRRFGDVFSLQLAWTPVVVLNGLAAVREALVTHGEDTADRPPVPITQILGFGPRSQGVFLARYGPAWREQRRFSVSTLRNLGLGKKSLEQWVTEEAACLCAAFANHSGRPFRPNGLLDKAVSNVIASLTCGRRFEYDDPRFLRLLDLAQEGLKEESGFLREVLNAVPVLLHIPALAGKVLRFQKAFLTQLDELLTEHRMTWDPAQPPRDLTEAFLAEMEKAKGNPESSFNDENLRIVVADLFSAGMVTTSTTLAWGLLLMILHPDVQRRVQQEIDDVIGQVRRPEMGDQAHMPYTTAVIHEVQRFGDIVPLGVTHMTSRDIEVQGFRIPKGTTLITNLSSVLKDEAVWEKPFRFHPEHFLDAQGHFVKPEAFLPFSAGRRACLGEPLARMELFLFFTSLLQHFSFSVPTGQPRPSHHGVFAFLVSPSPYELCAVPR
Protocol: Inhibition studies for CYP2B6, CYP2D6, CYP2C19 and CYP3A4 were performed with the CYP2B6/EFC, CYP2D6/AMMC, the CYP2C19/CEC, and the CYP3A4/BFC High Throughput Inhibitor Screening Kit according to the manufacturer’s instructions. The kits contain the respective recombinant CYP and fluorogenic substrates, which are blocked dyes emitting a fluorescence signal when cleaved by the enzyme. For testing CYP1A2 inhibition, the P450-Glo CYP1A2 Screening System was used according to the manufacturer’s instructions. The kit contains the luminogenic CYP1A2 substrate luciferin-ME, which is converted by CYP1A2 into luciferin-generating light when incubated with the luciferin detection reagent of the kit. Eight concentrations of venetoclax in duplicates (0.009–20 µM) were tested in the fluorescence assays, and eight concentrations in triplicate (0.05–100 µM) were tested for the luminogenic assay. Each experiment was conducted in triplicate.

ABCC2 = assay: Induction assay, ABCC2 mRNA by real-time RT-PCR in LS180 cells; assay type: in vitro ADME, human; conditions: four days, 0.01–10 µM
Protocol: as §1, §2, §3

UGT1A9 = assay: Induction assay, UGT1A9 mRNA by real-time RT-PCR in LS180 cells; assay type: in vitro ADME, human; conditions: four days, 10 µM
Protocol: as §1, §2, §3

UGT1A3 = assay: Induction assay, UGT1A3 mRNA by real-time RT-PCR in LS180 cells; assay type: in vitro ADME, human; conditions: four days, 10 µM
Protocol: as §1, §2, §3

OATP1B1 = molecular target: T3, OATP1B1 (Homo sapiens, UniProt Q9Y6L6); assay: OATP1B1 inhibition, 8-FcA uptake in HEK-OATP1B1 cells; assay type: in vitro ADME
T3 construct: expressed in transfected cells; host or cells: HEK293 (HEK-OATP1B1; gift of D. Keppler)
T3 sequence (Q9Y6L6 whole entry): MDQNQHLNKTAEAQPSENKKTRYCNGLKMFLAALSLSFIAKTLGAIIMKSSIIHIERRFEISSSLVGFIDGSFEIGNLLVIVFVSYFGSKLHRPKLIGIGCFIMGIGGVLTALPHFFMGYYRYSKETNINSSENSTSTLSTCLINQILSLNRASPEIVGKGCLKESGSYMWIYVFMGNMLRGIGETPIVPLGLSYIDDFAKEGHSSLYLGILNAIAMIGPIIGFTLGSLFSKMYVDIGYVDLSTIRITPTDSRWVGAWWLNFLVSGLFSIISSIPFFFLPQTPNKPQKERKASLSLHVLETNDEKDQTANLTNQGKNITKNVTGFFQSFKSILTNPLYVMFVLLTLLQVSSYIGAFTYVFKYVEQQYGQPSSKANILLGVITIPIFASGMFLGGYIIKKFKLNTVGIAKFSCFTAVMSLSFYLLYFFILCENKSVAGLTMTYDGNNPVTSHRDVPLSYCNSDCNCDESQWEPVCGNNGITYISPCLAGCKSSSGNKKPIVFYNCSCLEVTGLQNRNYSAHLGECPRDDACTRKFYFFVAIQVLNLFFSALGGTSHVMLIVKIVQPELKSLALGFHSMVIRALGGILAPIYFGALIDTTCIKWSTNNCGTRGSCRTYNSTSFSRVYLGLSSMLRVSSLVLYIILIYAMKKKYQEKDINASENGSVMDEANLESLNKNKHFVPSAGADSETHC
Protocol: HEK293 cells. For assessing inhibition of OATP1B1 and OATP1B3, the human embryonic kidney cell line HEK293 stably transfected with OATP1B1 (HEK-OATP1B1), OATP1B3 (HEK-OATP1B3), or the empty control vector (HEK293-VCG418) were used. Cells were cultured under standard cell culture conditions with DMEM supplemented with 10% FCS, 2 mM of glutamine, 100 U/mL of penicillin, 100 µg/mL of streptomycin sulfate, and 800 µg/mL of G418 to maintain over-expression. Cells were kindly provided by D. Keppler (German Cancer Research Centre, Heidelberg, Germany).
Inhibition of OATP1B1 and OATP1B3 was analyzed in HEK-OATP1B1 and HEK-OATP1B3 cells by quantifying the uptake of the fluorescent substrate 8-FcA by flow cytometry as described previously. HEK293-VCG418 cells were used as a control. Inhibition of OATPs leads to a reduced uptake of 8-FcA into the cells. Each experiment was performed at least in triplicate, and venetoclax was tested from 0.05 up to 100 µM.

[3] = set-up: method as in PMID 26639348, PMID 22184378, PMID 27520294; conditions: cited from earlier work

CC1(C)CCC(CN2CCN(c3ccc(C(=O)NS(=O)(=O)c4ccc(NCC5CCOCC5)c([N+](=O)[O-])c4)c(Oc4cnc5[nH]ccc5c4)c3)CC2)=C(c2ccc(Cl)cc2)C1 [Venetoclax]
luciferase activity in the AhR reporter gene assay (AhR): did not increase
mRNA expression of SLCO1B1 (SLCO1B1): suppressed
concentration reached in the intestine [1]: about 1 mM
cytotoxic effects [2]: not cytotoxic
IC50 CYP2D6 inhibition (CYP2D6): no inhibition
mRNA expression of ABCC2 (ABCC2): unchanged
mRNA expression of UGT1A9 (UGT1A9): induced
mRNA expression of UGT1A3 (UGT1A3): induced
IC50 (OATP1B1): 47.8 ± 10.1 µM
Therapeutic plasma concentrations [3]: about 5 µM
